Here are results for one compound from ChEMBL document CHEMBL6134864, “Discovery of FLT3-ITD Inhibitor Clifutinib: A Novel Biphenylacetylene Urea Derivative in Clinical Trials for the Treatment of Relapsed/Refractory FLT3-ITD+ Acute Myeloid Leukemia” (J Med Chem, 2025).

Molecules are shown by their SMILES. Activity calls are given as the source filed them. No cut-off for these calls is given here.

The test system of one test is NCI-H226. The experiment in a line: cells. The note with it: Homo sapiens, NCI-H226, 72 h.
The subject of the next test is HCT-116. The test can be described thus: cells. The settings on record: Homo sapiens, HCT-116, 72 h.
The next test concerns MCF7. The experiment in a line: cells. The note with it: Homo sapiens, MCF7, 72 h.
In the next test the test system is MOLM-13. The experiment in a line: Antitumor activity against human MOLM-13 cells xenografted in NOD/SCID mouse model assessed as tumor growth inhibition at […], po in presence of Ara-C by caliper analysis relative to control. The class given is functional. The note with it: dose 1.5 mg/kg/day, read-out: TGI. (In general: A xenograft is tissue or cells of one species grown in another, often human tumour cells in immunodeficient mice.)

A further test deals with A2780. The test can be described thus: cells. The settings on record: Homo sapiens, A2780, 72 h.
Another test relates to BaF3. The test can be described thus: cells. The note with it: Mus musculus, BaF3, 72 h.
The test system of test [1] is Receptor-type tyrosine-protein kinase FLT3 (Homo sapiens), P36888 [UNDEFINED MUTATION]. The test can be described thus: Inhibition of FLT3 in human MV4-11 cells harbouring FLT3-ITD mutant assessed as inhibition of AKT phosphorylation level measured after 2 hrs by Western blot analysis. The class given is cell-based. The settings on record: dose 1-1000 nM.
For test [2], the target named is Proto-oncogene tyrosine-protein kinase receptor Ret (Homo sapiens, UniProt P07949). The experiment in a line: Inhibition of human RET by biochemical kinase binding assay.
For test [3], the system named is Receptor-type tyrosine-protein kinase FLT3 (Homo sapiens), P36888 [UNDEFINED MUTATION]. The test can be described thus: Inhibition of FLT3 in human MV4-11 cells harbouring FLT3-ITD mutant assessed as effect on FLT3 protein level at 1 to 1000 nM measured after 2 hrs by Western blot analysis. The class given is cell-based. The note with it: dose 1-1000 nM. (In general: In western blotting, separated proteins are transferred to a membrane and probed.)

Sequence of Receptor-type tyrosine-protein kinase FLT3 (Homo sapiens), P36888 [UNDEFINED MUTATION] (P36888 whole entry, looked up, stated change not applied): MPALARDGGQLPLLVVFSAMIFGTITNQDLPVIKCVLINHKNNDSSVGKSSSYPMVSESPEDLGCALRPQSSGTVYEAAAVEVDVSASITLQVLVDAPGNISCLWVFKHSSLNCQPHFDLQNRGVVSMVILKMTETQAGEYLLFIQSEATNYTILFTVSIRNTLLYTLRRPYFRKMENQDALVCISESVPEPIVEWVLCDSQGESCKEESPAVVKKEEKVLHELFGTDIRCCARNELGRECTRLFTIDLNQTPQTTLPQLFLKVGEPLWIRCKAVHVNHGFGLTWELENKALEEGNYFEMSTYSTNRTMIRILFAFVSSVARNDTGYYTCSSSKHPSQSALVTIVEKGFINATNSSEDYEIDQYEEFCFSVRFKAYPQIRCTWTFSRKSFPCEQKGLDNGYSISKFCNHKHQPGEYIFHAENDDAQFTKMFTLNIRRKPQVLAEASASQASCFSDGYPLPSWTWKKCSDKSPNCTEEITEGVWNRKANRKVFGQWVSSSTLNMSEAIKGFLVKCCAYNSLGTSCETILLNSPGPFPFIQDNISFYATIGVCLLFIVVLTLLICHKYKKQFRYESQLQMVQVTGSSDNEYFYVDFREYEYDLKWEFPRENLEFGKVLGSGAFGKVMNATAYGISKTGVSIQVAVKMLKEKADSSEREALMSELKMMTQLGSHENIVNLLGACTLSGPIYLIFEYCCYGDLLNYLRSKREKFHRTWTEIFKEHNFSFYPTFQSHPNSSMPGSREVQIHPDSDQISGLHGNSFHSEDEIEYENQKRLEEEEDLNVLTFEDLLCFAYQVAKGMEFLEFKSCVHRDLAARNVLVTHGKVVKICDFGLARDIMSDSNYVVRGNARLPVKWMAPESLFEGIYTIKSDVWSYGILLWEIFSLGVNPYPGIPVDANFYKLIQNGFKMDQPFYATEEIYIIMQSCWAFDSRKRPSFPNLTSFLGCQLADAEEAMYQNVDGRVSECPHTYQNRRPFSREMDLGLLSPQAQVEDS
Sequence of Proto-oncogene tyrosine-protein kinase receptor Ret (P07949 whole entry): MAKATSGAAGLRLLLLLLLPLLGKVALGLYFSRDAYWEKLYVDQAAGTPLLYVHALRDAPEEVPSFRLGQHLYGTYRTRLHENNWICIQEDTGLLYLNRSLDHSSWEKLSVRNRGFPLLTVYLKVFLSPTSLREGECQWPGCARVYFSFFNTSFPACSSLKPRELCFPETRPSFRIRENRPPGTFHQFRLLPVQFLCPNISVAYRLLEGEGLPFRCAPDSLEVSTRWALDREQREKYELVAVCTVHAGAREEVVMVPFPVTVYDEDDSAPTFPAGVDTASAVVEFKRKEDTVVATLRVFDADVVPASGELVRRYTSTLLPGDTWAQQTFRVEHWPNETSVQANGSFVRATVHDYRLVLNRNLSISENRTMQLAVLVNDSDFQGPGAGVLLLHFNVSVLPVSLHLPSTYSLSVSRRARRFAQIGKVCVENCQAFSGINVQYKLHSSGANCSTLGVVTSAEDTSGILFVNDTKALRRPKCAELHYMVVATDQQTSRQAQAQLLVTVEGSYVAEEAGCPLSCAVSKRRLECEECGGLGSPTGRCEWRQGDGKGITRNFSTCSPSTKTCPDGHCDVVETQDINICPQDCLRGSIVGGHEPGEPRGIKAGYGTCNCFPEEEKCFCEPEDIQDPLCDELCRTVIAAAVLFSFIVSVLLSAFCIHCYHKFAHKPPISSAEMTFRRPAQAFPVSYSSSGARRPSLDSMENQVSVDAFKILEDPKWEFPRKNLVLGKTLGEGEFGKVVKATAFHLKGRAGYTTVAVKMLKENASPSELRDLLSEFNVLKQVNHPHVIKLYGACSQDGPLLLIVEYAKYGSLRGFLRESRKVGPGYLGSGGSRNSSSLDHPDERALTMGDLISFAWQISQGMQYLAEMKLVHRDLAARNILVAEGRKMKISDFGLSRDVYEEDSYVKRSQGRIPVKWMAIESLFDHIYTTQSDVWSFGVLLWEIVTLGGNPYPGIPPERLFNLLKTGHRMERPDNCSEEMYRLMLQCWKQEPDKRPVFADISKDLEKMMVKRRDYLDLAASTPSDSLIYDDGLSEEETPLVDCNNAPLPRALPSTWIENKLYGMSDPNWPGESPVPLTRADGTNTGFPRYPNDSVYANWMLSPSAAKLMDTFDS
Description for A2780: Antiproliferative activity against human A2780 cells assessed as inhibition of cell growth incubated for 72 hrs by celltiter-glo luminescent cell viability assay
Description for BaF3: Antiproliferative activity against mouse BaF3 cells harbouring FLT3-D83HY mutant assessed as inhibition of cell growth incubated for 72 hrs by celltiter-glo luminescent cell viability assay
Description for HCT-116: Antiproliferative activity against human HCT-116 cells assessed as inhibition of cell growth incubated for 72 hrs by celltiter-glo luminescent cell viability assay
Description for MCF7: Antiproliferative activity against human MCF7 cells assessed as inhibition of cell growth incubated for 72 hrs by celltiter-glo luminescent cell viability assay
Description for NCI-H226: Antiproliferative activity against human NCI-H226 cells assessed as inhibition of cell growth incubated for 72 hrs by celltiter-glo luminescent cell viability assay

Usually IC50 stands for the concentration that gives 50% inhibition. Read a high IC50 as weaker potency in that assay. With `CC(C)(C)c1cc(NC(=O)Nc2ccc(C#Cc3ccc(OCCCN4CCOCC4)cc3)cc2)no1`, the IC50 with NCI-H226 was over 10 µM; in the test with HCT-116, 8.5 µM; in the test on MCF7, over 10 µM; in the test with A2780 it was 7.2 µM; in the test on BaF3, 0.0109 µM; in test [2], 0.11 µM. Moreover, in the test with MOLM-13, the inhibition in vivo at […] was 80%. Also, in test [1], the inhibition entry was “Dose-dependent-effect”. For the same compound, the inhibition entry in test [3] is “inactive”.
